{"source": "paper PMC5736695", "about": "“Lectin activity of the pneumococcal pilin proteins” (Scientific Reports, 2017)", "format_in_all_cases": "binding", "key": {"RrgC T4": {"molecular_target": "T1, RrgC T4 (Streptococcus pneumoniae, UniProt A0A0H2UNM0)", "T1 construct": "gene SP_0464", "T1 sequence (A0A0H2UNM0 entry or part of it)": "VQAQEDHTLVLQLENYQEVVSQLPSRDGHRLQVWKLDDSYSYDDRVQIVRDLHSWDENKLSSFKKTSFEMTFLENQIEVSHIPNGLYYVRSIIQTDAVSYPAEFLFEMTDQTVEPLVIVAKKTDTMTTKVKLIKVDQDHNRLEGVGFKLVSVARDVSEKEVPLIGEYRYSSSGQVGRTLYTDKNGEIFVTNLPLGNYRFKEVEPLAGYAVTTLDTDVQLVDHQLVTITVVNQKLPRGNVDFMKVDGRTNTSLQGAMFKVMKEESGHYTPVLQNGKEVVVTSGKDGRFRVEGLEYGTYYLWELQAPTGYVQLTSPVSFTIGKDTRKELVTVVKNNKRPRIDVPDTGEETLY", "assay": "glycan array, fluorescence", "details": "glycan printed on slide via spacer; PBS, 1 mM MgCl2, 1 mM CaCl2; protein pre-complexed with anti-His and labelled secondary antibodies", "excerpt": "glycan array, fluorescence on RrgC T4"}, "RrgA SPEC6B": {"molecular_target": "RrgA SPEC6B (Streptococcus pneumoniae, UniProt A7KT31)", "sequence (A7KT31 entry or part of it)": "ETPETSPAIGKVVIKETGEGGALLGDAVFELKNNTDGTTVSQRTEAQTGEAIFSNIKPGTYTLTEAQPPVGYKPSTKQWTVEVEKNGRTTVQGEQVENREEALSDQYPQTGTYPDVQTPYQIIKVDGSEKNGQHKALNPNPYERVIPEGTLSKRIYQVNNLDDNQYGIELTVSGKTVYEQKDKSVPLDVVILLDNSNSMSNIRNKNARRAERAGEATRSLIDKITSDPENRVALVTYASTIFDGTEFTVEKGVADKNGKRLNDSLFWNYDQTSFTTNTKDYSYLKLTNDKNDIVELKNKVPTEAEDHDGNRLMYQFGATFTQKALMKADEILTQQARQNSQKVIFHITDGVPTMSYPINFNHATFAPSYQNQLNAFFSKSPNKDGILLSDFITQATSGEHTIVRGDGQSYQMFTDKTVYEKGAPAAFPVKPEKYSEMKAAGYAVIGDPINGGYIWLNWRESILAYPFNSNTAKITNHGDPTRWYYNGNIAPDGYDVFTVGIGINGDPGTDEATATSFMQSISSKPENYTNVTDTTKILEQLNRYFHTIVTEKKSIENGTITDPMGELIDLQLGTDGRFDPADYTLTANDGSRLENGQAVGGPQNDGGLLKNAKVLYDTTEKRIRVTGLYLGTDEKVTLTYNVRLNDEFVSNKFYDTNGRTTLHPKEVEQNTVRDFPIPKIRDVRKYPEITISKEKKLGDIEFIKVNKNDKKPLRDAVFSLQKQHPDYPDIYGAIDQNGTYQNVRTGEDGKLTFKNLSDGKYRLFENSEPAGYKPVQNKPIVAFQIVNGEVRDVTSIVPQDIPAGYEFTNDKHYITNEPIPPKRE", "assay": "SPR (Biacore T100)", "details": "read-out: RrgA SPEC6B; free oligosaccharide; protein immobilised on CM5 chip; glycans 160 nM to 100 µM", "excerpt": "SPR (Biacore T100) on RrgA SPEC6B"}, "RrgA TIGR4 (RrgA T4)": {"molecular_target": "T2, RrgA TIGR4 (RrgA T4) (Streptococcus pneumoniae, UniProt A0A0H2UNT6)", "T2 construct": "gene SP_0462", "T2 sequence (A0A0H2UNT6 entry or part of it)": "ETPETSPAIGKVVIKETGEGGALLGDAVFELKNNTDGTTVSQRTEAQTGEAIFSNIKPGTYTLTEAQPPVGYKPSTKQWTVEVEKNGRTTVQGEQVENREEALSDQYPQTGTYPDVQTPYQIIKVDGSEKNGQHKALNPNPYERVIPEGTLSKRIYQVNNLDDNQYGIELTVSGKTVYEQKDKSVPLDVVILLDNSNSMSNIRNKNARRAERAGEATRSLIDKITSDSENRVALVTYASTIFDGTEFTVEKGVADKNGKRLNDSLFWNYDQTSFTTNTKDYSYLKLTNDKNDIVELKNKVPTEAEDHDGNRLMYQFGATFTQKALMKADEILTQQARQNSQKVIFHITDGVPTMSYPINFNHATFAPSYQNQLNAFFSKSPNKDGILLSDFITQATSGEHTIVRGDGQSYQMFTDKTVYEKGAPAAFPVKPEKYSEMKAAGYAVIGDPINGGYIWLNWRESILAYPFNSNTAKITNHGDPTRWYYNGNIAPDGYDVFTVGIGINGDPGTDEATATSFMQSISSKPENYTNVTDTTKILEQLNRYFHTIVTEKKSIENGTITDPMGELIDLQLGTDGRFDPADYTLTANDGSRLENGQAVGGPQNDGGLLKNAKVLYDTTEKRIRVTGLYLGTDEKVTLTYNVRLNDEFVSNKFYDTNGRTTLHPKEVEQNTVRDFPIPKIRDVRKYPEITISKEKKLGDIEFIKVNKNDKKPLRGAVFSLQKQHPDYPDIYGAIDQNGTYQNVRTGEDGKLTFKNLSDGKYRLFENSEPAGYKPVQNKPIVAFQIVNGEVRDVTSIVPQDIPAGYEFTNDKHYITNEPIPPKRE", "assay": "SPR (Biacore T100)", "excerpt": "SPR (Biacore T100) on RrgA TIGR4 (RrgA T4)"}, "RrgB T4": {"molecular_target": "T3, RrgB T4 (Streptococcus pneumoniae, UniProt A0A0H2UNM7)", "T3 construct": "gene SP_0463", "T3 sequence (A0A0H2UNM7 entry or part of it)": "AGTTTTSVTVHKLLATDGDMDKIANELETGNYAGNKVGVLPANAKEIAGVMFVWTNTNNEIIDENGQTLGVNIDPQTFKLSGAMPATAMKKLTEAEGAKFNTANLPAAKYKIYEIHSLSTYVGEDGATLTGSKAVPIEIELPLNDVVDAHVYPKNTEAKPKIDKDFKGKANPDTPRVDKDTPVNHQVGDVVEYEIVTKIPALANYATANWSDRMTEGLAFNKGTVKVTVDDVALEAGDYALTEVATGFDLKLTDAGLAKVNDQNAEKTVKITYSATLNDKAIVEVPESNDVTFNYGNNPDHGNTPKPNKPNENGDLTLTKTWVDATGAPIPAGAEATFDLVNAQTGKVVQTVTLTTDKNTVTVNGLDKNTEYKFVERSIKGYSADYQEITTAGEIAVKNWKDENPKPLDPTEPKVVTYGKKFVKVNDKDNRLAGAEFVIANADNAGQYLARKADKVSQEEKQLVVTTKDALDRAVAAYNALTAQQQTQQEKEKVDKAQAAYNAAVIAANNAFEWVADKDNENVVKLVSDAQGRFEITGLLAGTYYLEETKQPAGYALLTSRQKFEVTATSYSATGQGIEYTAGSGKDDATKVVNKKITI", "assay": "glycan array, fluorescence", "details": "glycan printed on slide via spacer; PBS, 1 mM MgCl2, 1 mM CaCl2; protein pre-complexed with anti-His and labelled secondary antibodies", "excerpt": "glycan array, fluorescence on RrgB T4"}, "[1]": {"details": "read-out: RrgA TIGR4, free oligosaccharide, protein immobilised on CM5 chip, glycans 160 nM to 100 µM"}}, "note": "Read-outs that look alike come from different tables or passages of the source."}
{"molecule": "Galα1-3Galβ1-4GlcNAcβ-sp3 [compound 222]", "values": [{"measurement": "RrgC T4", "setting": "RrgC T4", "value": "3108 ± 641"}]}
{"molecule": "CC(=O)N[C@H]1C(O)O[C@H](CO)[C@@H](O[C@@H]2O[C@H](CO)[C@H](O)[C@H](O)[C@H]2O)[C@@H]1O[C@@H]1O[C@@H](C)[C@@H](O)[C@@H](O)[C@@H]1O", "note": "(stereo partly shown) [Lewis X]", "values": [{"measurement": "Kd", "setting": "RrgA SPEC6B", "value": "363 ± 107", "unit": "nM"}, {"measurement": "Kd", "setting": "RrgA TIGR4 (RrgA T4)", "value": "434 ± 118", "unit": "nM"}]}
{"molecule": "OC[C@H]1O[C@@H](O[C@H]2[C@H](O)[C@@H](O)C(O)O[C@@H]2CO)[C@H](O)[C@@H](O)[C@@H]1O", "note": "(stereo partly shown) [cellobiose]", "values": [{"measurement": "Kd", "setting": "RrgA SPEC6B", "value": "583 ± 155", "unit": "nM"}]}
{"molecule": "CC(=O)N[C@H]1[C@@H](O[C@H]2[C@@H](O)[C@@H](CO)OC(O)[C@@H]2O[C@@H]2O[C@@H](C)[C@@H](O)[C@@H](O)[C@@H]2O)O[C@H](CO)[C@H](O)[C@@H]1O", "note": "(stereo partly shown) [7K, Blood group A tri]", "values": [{"measurement": "Kd", "setting": "RrgA SPEC6B", "value": "1400 ± 290", "unit": "nM"}, {"measurement": "Kd", "setting": "RrgA TIGR4 (RrgA T4); [1]", "value": "916 ± 66.4", "unit": "nM"}]}
{"molecule": "Manα1-3Manβ-sp4 [compound 120]", "values": [{"measurement": "RrgB T4", "setting": "RrgB T4", "value": "1332 ± 275"}]}
{"molecule": "CC(=O)N[C@H]1[C@H](O[C@H]2[C@@H](O)[C@@H](CO)O[C@@H](O[C@H]3[C@H](O)[C@@H](O)C(O)O[C@@H]3CO)[C@@H]2O)O[C@H](CO)[C@@H](O)[C@@H]1O[C@@H]1O[C@H](CO)[C@H](O)[C@H](O)[C@H]1O", "note": "(stereo partly shown) [1G, Lacto-N-tetraose]", "values": [{"measurement": "Kd", "setting": "RrgA SPEC6B", "value": "869 ± 454", "unit": "nM"}, {"measurement": "Kd", "setting": "RrgA TIGR4 (RrgA T4); [1]", "value": "1030 ± 50", "unit": "nM"}]}
{"molecule": "CC(=O)N[C@H]1[C@@H](O[C@H]2[C@@H](O)[C@@H](CO)O[C@@H](O[C@H]3[C@@H](O)[C@@H](CO)OC(O)[C@@H]3NC(C)=O)[C@@H]2O[C@@H]2O[C@@H](C)[C@@H](O)[C@@H](O)[C@@H]2O)O[C@H](CO)[C@H](O)[C@@H]1O", "note": "(stereo partly shown) [Blood group A type3/4]", "values": [{"measurement": "Kd", "setting": "RrgA SPEC6B", "value": "644 ± 157", "unit": "nM"}, {"measurement": "Kd", "setting": "RrgA TIGR4 (RrgA T4); [1]", "value": "871 ± 286", "unit": "nM"}]}
{"molecule": "Fucα1-2Galβ1-3(Fucα1-4)GlcNAcβ1-3Galβ1-4Glcβ-sp4 [compound 496]", "values": [{"measurement": "RrgC T4", "setting": "RrgC T4", "value": "1192 ± 322"}]}
{"molecule": "OC[C@H]1O[C@H](O[C@H]2[C@H](O)[C@@H](O)C(O)O[C@@H]2CO)[C@H](O)[C@@H](O)[C@@H]1O", "note": "(stereo partly shown) [maltobiose]", "values": [{"measurement": "Kd", "setting": "RrgA SPEC6B", "value": "964 ± 226", "unit": "nM"}, {"measurement": "Kd", "setting": "RrgA TIGR4 (RrgA T4); [1]", "value": "1160 ± 90", "unit": "nM"}]}
{"molecule": "Galβ1-6Galβ-sp4 [compound 100]", "values": [{"measurement": "RrgC T4", "setting": "RrgC T4", "value": "3443.5 ± 523"}]}
{"molecule": "CC(=O)N[C@H]1[C@H](O[C@H]2[C@H](O)[C@@H](NC(C)=O)C(O)O[C@@H]2CO)O[C@H](CO)[C@@H](O)[C@@H]1O", "note": "(stereo partly shown) [chitobiose]", "values": [{"measurement": "Kd", "setting": "RrgA SPEC6B", "value": "426 ± 144", "unit": "nM"}, {"measurement": "Kd", "setting": "RrgA TIGR4 (RrgA T4); [1]", "value": "409 ± 160", "unit": "nM"}]}
{"molecule": "CC(=O)N[C@H]1C(O)O[C@H](CO)[C@H](O)[C@@H]1O[C@@H]1O[C@H](CO)[C@H](O)[C@H](O)[C@H]1O[C@@H]1O[C@@H](C)[C@@H](O)[C@@H](O)[C@@H]1O", "note": "(stereo partly shown) [Blood group H type 3/4]", "values": [{"measurement": "Kd", "setting": "RrgA SPEC6B", "value": "358 ± 51", "unit": "nM"}, {"measurement": "Kd", "setting": "RrgA TIGR4 (RrgA T4); read-out: RrgA TIGR4, free oligosaccharide, protein immobilised on CM5 chip, glycans 160 nM to 100 µM (value below tested range)", "value": "89.4 ± 16", "unit": "nM"}]}
